Measured values published in publication PMC9081329, “Pharmacokinetics, Mass Balance, Excretion, and Tissue Distribution of Plasmalogen Precursor PPI-1011” (Frontiers in Cell and Developmental Biology, 2022).

Experiment: Repeat dose tissue distribution study (QWBA, LSC of blood and plasma), 15 daily doses
Assay type: in vivo, Sprague-Dawley rats
Description: Three male rats were administered [^14C]PPI-1011 at 100 mg/kg (100 μCi/kg) once daily for 15 days. One rat was sacrificed at each of the following time points after the administration of the day 15 dose: 24, 48, and 96 h. Terminal blood was collected by cardiac puncture directly into tubes with K2EDTA, an aliquot was stored at 4°C until LSC was performed for radioactivity, while the remaining blood was processed to plasma and stored at −20°C until LSC. Following blood collection, the carcasses were frozen in a cold bath with hexanes and dry ice for at least 8 min and then dried and stored at −70°C for at least 12 h. The carcasses were transferred to a −20°C freezer for at least 12 h before embedding.
QWBA was used to determine radioactivity concentrations in the caecum (contents and mucosa), large intestine (contents and mucosa), small intestine (contents and mucosa), stomach (contents and mucosa), brain, choroid plexus, spinal cord, bone, skin, adrenal gland, pineal body, pituitary gland, thyroid gland, liver, kidney (cortex, medulla and whole kidney), urinary bladder (contents and wall), brown fat, white fat, eye (lens, uveal tract and whole eye), epididymis, prostate gland, testis, ovary, uterus, lung, exorbital lachrymal gland, Harderian gland, pancreas, salivary gland, skeletal muscle, myocardium, cardiac blood, bone marrow, lymph node, spleen, and thymus. As well, LSC was used to determine the total radioactivity in the whole blood and plasma.
The whole-body cryosectioning technique described by ([Ullberg, 1977]) was the basis for embedding and cryosectioning the rats assigned to this study. Each frozen carcass was shaved, and then the limbs and tail were removed prior to embedding. Chilled (4°C) 3% CMC (low viscosity) was utilized to provide a firm support of reinforced ice around each rat and for a secure attachment to the microtome stage. Upon thorough freezing of the embedding medium surrounding each rat, the frozen CMC block was removed from the freezing bath and four 3/8 inch holes were drilled into the block. One cryosection quality control standard (CQCS) was prepared with a known amount of radioactivity and at least 1 ml aliquots were added to each of the four drilled holes. CQCS data were utilized to evaluate the overall performance of the QWBA assay.
Each frozen rat was sagittally trimmed (50–100 μm) at −20°C until exposure of a few target tissues employing a Leica Cryomacrocut heavy-duty microtome (Leica Microsystems Inc.,). Disposable stainless steel Feather type H45L knives (Feather Safety Razor Co., Ltd.) were utilized for trimming and sectioning each frozen rat. Several thinner sections (50 μm) were discarded prior to obtaining multiple 50 μm sections at various cryosectioning levels for QWBA analysis. Upon the collection of at least 60 target tissues in multiple cryosectioning levels, the cryosections were kept in the Cryomacrocut cryochamber for a minimum of 18 h for dehydration depending upon the number of cryosections within the cryochamber. After dehydration was complete, the cryosections were transferred to ambient temperature for processing. Mounted whole-body cryosections and a set of 15 standards were sandwiched between a standard phosphor screen and an exposure cassette. All cryosections were exposed to the phosphor screen for 4-days in a cabinet protected with lead prior to scanning using a Typhoon PhosphorImager (Cytiva). MCID™ Analysis software (InterFocus Ltd.) was utilized to generate a calibration curve of the STD nominal concentrations (nCi/g) versus PhosphorImager response (counts/μm^2 minus background) by weighted (1/x) linear regression analysis ([Potchoiba et al., 1995]; [Potchoiba et al., 1998]). The linear regression curve was then utilized to determine the concentration (nCi/g) of total radioactivity in whole-body tissues and blood. Radioactivity concentrations were expressed as μg Eq/g based on the specific activity of the compound in the final dose formulations. […]

[1] = 48 hr post 15 daily oral 100 mg/kg
[2] = 96 hr post 15 daily oral 100 mg/kg

## CC/C=C\C/C=C\C/C=C\C/C=C\C/C=C\C/C=C\CCC(=O)O[C@H](CO[14CH2]CCCCCCCCCCCCCCC)COC(=O)CCCCC1CCSS1 (some centres unmarked) [[^14C]PPI-1011]
[1]
  Radioactivity concentration, Colliculus: 68.0 μg equivalents/g
  Radioactivity concentration, Diaphragm: 172 μg equivalents/g
  Radioactivity concentration, Esophagus: 94.8 μg equivalents/g
  Radioactivity concentration, Exorbital Lacrimal Gland: 82.5 μg equivalents/g
  Radioactivity concentration, Gastric Mucosa: 307 μg equivalents/g
  Radioactivity concentration, Harderian Gland: 69.6 μg equivalents/g
  Radioactivity concentration, Intra-Orbital Lacrimal Gland: 84.5 μg equivalents/g
  Radioactivity concentration, Kidney: 221 μg equivalents/g
  Radioactivity concentration, Large Intestines: 122 μg equivalents/g
  Radioactivity concentration, Liver: 186 μg equivalents/g
  Radioactivity concentration, Lung: 181 μg equivalents/g
  Radioactivity concentration, Lymph Node: 165 μg equivalents/g
  Radioactivity concentration, Medulla Oblongata: 48.4 μg equivalents/g
  Radioactivity concentration, Muscle: 95.4 μg equivalents/g
  Radioactivity concentration, Myocardium: 222 μg equivalents/g
  Radioactivity concentration, Nasal Turbinates: 184 μg equivalents/g
  Radioactivity concentration, Ocular - Lens: 5.05 μg equivalents/g
  Radioactivity concentration, Ocular - Uveal Tract: 59.6 μg equivalents/g
  Radioactivity concentration, Ocular - Vitreous Body: 2.01 μg equivalents/g
  Radioactivity concentration, Ocular - Whole Eye: 15.8 μg equivalents/g
  Radioactivity concentration, Olfactory Bulb: 35.0 μg equivalents/g
  Radioactivity concentration, Pancreas: 312 μg equivalents/g
  Radioactivity concentration, Parotid Gland: 257 μg equivalents/g
  Radioactivity concentration, Pineal Gland: 156 μg equivalents/g
  Radioactivity concentration, Pituitary Gland: 226 μg equivalents/g
  Radioactivity concentration, Prostate: 72.1 μg equivalents/g
  Radioactivity concentration, Renal Cortex: 244 μg equivalents/g
  Radioactivity concentration, Renal Medulla: 183 μg equivalents/g
  Radioactivity concentration, Salivary Gland: 271 μg equivalents/g
  Radioactivity concentration, Seminal Vesicles: 60.7 μg equivalents/g
  Radioactivity concentration, Skin - Non-Pigmented: 101 μg equivalents/g
  Radioactivity concentration, Small Intestines: 164 μg equivalents/g
  Radioactivity concentration, Spinal Cord: 51.2 μg equivalents/g
  Radioactivity concentration, Spleen: 209 μg equivalents/g
  Radioactivity concentration, Stomach: 78.9 μg equivalents/g
  Radioactivity concentration, Testis: 47.2 μg equivalents/g
  Radioactivity concentration, Thalamus: 42.3 μg equivalents/g
  Radioactivity concentration, Thymus: 131 μg equivalents/g
  Radioactivity concentration, Thyroid: 297 μg equivalents/g
  Radioactivity concentration, Whole Brain: 43.7 μg equivalents/g
[2]
  Radioactivity concentration, Adipose - Brown: 1301 μg equivalents/g
  Radioactivity concentration, Adipose - Brown (Vessel Wall): 1249 μg equivalents/g
  Radioactivity concentration, Adipose - Subcutaneous: 1373 μg equivalents/g
  Radioactivity concentration, Adipose - Visceral: 1265 μg equivalents/g
  Radioactivity concentration, Adrenal Gland: 1636 μg equivalents/g
  Radioactivity concentration, Bladder Wall: 101 μg equivalents/g
  Radioactivity concentration, Blood - QWBA: 29.5 μg equivalents/g
  Radioactivity concentration, Bone Marrow: 77.3 μg equivalents/g
  Radioactivity concentration, Bone Surface: 10.5 μg equivalents/g
  Radioactivity concentration, Cerebellum: 55.8 μg equivalents/g
  Radioactivity concentration, Cerebrum: 47.5 μg equivalents/g
  Radioactivity concentration, Choroid Plexus: 121 μg equivalents/g
  Radioactivity concentration, Colliculus: 67.3 μg equivalents/g
  Radioactivity concentration, Diaphragm: 125 μg equivalents/g
  Radioactivity concentration, Esophagus: 87.1 μg equivalents/g
  Radioactivity concentration, Exorbital Lacrimal Gland: 71.0 μg equivalents/g
  Radioactivity concentration, Gastric Mucosa: 210 μg equivalents/g
  Radioactivity concentration, Harderian Gland: 47.9 μg equivalents/g
  Radioactivity concentration, Intra-Orbital Lacrimal Gland: 76.5 μg equivalents/g
  Radioactivity concentration, Kidney: 238 μg equivalents/g
  Radioactivity concentration, Large Intestines: 94.3 μg equivalents/g
  Radioactivity concentration, Liver: 129 μg equivalents/g
  Radioactivity concentration, Lung: 191 μg equivalents/g
  Radioactivity concentration, Lymph Node: 127 μg equivalents/g
  Radioactivity concentration, Medulla Oblongata: 51.8 μg equivalents/g
  Radioactivity concentration, Muscle: 97.9 μg equivalents/g
  Radioactivity concentration, Myocardium: 172 μg equivalents/g
  Radioactivity concentration, Nasal Turbinates: 80.2 μg equivalents/g
  Radioactivity concentration, Ocular - Lens: 6.92 μg equivalents/g
  Radioactivity concentration, Ocular - Uveal Tract: 68.9 μg equivalents/g
  Radioactivity concentration, Ocular - Vitreous Body: 2.06 μg equivalents/g
  Radioactivity concentration, Ocular - Whole Eye: 18.2 μg equivalents/g
  Radioactivity concentration, Olfactory Bulb: 42.2 μg equivalents/g
  Radioactivity concentration, Pancreas: 333 μg equivalents/g
  Radioactivity concentration, Parotid Gland: 220 μg equivalents/g
  Radioactivity concentration, Pineal Gland: 179 μg equivalents/g
  Radioactivity concentration, Pituitary Gland: 191 μg equivalents/g
  Radioactivity concentration, Prostate: 84.8 μg equivalents/g
  Radioactivity concentration, Renal Cortex: 250 μg equivalents/g
  Radioactivity concentration, Renal Medulla: 186 μg equivalents/g
  Radioactivity concentration, Salivary Gland: 227 μg equivalents/g
  Radioactivity concentration, Seminal Vesicles: 54.7 μg equivalents/g
  Radioactivity concentration, Skin - Non-Pigmented: 129 μg equivalents/g
  Radioactivity concentration, Small Intestines: 112 μg equivalents/g
  Radioactivity concentration, Spinal Cord: 53.0 μg equivalents/g
  Radioactivity concentration, Spleen: 147 μg equivalents/g
  Radioactivity concentration, Stomach: 109 μg equivalents/g
  Radioactivity concentration, Testis: 43.3 μg equivalents/g
  Radioactivity concentration, Thalamus: 45.4 μg equivalents/g
  Radioactivity concentration, Thymus: 107 μg equivalents/g
  Radioactivity concentration, Thyroid: 259 μg equivalents/g
  Radioactivity concentration, Whole Brain: 47.3 μg equivalents/g
By 96 HPD, 15 daily doses
  Decline of radioactivity from peak concentration, subcutaneous adipose: ~1.1 fold
  Decline of radioactivity from peak concentration, visceral adipose: ~1.2 fold
rat, in vivo
  Uptake in the brain following 15 doses versus single dose, on average: 16-18 times
